Experimental data from patent publication US8623416B2 (priority 2009, dated 2014).
“Also recorded” adds a separate entry of the source. Like-named read-outs stand apart in the source and are kept apart here.

Tests used:
[1] = assay type: physicochemical; conditions: 0.1 ml squalamine lactate 10 mg/ml in water + 1 volume 0.1M solution of the anion, turbid = insoluble salt form
Yellow Fever [2] = test system: Yellow Fever; design: species or system Syrian hamsters; conditions: hamster, in vivo
[3] = 10 mg of squalamine as a phosphate suspension
[4] = for Toxicity: hamster, in vivo, sc
human Hepatitis B virus = experiment: Hepatitis B virus replication in primary human hepatocytes, PCR (Example 19); assay type: cell-based
Procedure: The purpose of this experiment was to determine the antiviral activity of squalamine against human Hepatitis B virus. The experiment was conducted in vitro, using primary human hepatocytes.
Experimental design: Primary human hepatocytes were established in a 96 well microtiter plate. Squalamine was then added at concentrations of 2, 6 or 20 μg/ml followed by an inoculum of Hep B virus, and then in culture for 16 hours, after which fresh medium was introduced, and the cells maintained in culture for 14 days. In a second experiment, squalamine at 6 or 20 μg/ml was added to the cells at 24 hours post inoculation for a 16 hour exposure, followed by removal of medium, replacement with fresh medium, and continued culture for 14 days. Viral growth was measured by PCR using viral specific primers and normalized to the total RNA extracted from each corresponding well.

[5] = test system: Eastern Equine Encephalitis Virus; design: species or system mice; conditions: mouse, in vivo
[6] = in vivo; cited from earlier work
[7] = test system: human Hepatitis Delta virus; experiment: Hepatitis Delta virus replication in primary human hepatocytes, PCR (Example 20)
[8] = test system: Eastern Equine Encephalitis Virus; design: species or system hamsters (Syrian golden); conditions: hamster, in vivo
[9] = in vivo; cited from earlier work; remark: listed apart in the source
Yellow Fever [10] = test system: Yellow Fever; design: species or system Syrian hamsters; conditions: hamster, in vivo; remark: listed apart in the source
[11] = test system: human immunodeficiency virus (HIV)
[12] = test system: murine cytomegalovirus (MCMV); assay type: in vivo, Balb/c mice; conditions: for viral titers in lungs and salivary glands vs other groups / viral titers in spleen and liver vs control: day 7
[13] = 20 μg/ml, added during initial stages of infection
[14] = squalamine phosphate 10 mg/kg/day s.c.
[15] = mouse, in vivo, ip, 10 mg/kg/day

## O=C[C@H](O)[C@@H](O)[C@H](O)[C@H](O)COP(=O)(O)O [Glucose 6-phosphate]
[1]
  Turbidity: No and no

## NC(=O)c1ncn([C@@H]2O[C@H](CO)[C@@H](O)[C@H]2O)n1 [ribavirin, reference compound]
Yellow Fever [2]
  survival vs placebo: fared no better than the placebo-treated cohort

## O=P([O-])([O-])OP(=O)([O-])OP(=O)([O-])[O-].[Na+].[Na+].[Na+].[Na+].[Na+] [Sodium triphosphate]
[1]; triphosphate
  Turbidity: Yes and yes

## CC(=O)C(=O)[O-].[Na+] [Sodium pyruvate]
[1]
  Turbidity: No and no

## squalamine phosphate
[3]
  water added until fully dissolved: about 250 ml
0.1 ml of 10 mg/ml s.c.
  persistence of local signs (lactate: signs and symptoms; phosphate: slight swelling): about 1 week
human, in vivo, sc
  local signs at injection site: free of visible signs of irritation, save for a slight swelling
  pain on injection: no pain other than that produced by the needle prick
Yellow Fever [2]
  survival: 70%
[4]; 15 mg/kg/day
  Toxicity: none
[4]; 30 mg/kg/day
  Toxicity: none
[4]; 60 mg/kg/day
  Toxicity: none
[4]; s.c. dosing at 10 mg/ml, recorded 7 days post injection
  lesions at the sites of administration: no lesions

## 3 beta-N-1-(N-[3-(4-aminobutyl)]-1,3-diaminopropane)-7 alpha,24 zeta-dihydroxy-5 alpha-cholestane 24-sulfate [squalamine]
Human Hepatitis B virus; 2 μg/ml, added only at the outset of infection
  inhibition of viral production: 14%
Human Hepatitis B virus; 6 μg/ml, added at 24 hours
  inhibition of viral production: 30%
Human Hepatitis B virus; 6 μg/ml, added at the onset of infection
  inhibition of viral production: 54%
Human Hepatitis B virus; 20 μg/ml, added at 24 hours
  inhibition of viral production: 64%
Human Hepatitis B virus; [13]
  inhibition of viral production: 83%
[5]
  efficacy in mice: ineffective
[6]
  tolerability: well tolerated
[7]; [13]
  inhibition of viral production: 90%
[7]; 60 μg/ml, primary human hepatocytes
  cytotoxicity in vitro: cytotoxic
[8]
  effect on survival: extended survival; also recorded: increase survival
  effect on viremia: significantly reduce viremia
  hamsters still alive at the end of treatment: 6/10
  plasma concentrations of virus lower than vehicle: about 100 fold
[9]
  tolerability: well tolerated
Yellow Fever [10]
  animals cured: 40%
  outcome of treatment of established infection: cure a lethal infection
  survival through day 21: 60%
[11]
  Toxicity: no evidence of toxicity
  inhibition of HIV infection: about 50%; also recorded: about 20%
[12]; 10 mg/kg/day i.p.
  viral titers in lung compared with control: trend toward reduction
  viral titers in lungs and salivary glands vs other groups: no significant differences
  viral titers in spleen and liver vs control: significantly lower than in the control cohort
[12]; [14]
  viral titers in lungs and salivary glands vs other groups: no significant differences
  viral titers in spleen and liver vs control: significantly lower than in the control cohort
[12]; mouse, in vivo
  virus in the liver and spleen: significantly reduced; also recorded: undetectable levels
[12]; [15]
  effect on viral growth in the salivary gland: little effect
  reduction in viral growth in liver, spleen, and lung: greater than 10 fold
  virus in the liver and spleen: undetectable levels
Yellow Fever [2]
  survival: 70%
Dengue virus
  cell viability: not diminished
  inhibition of viral infection: 100%
[4]; 15 mg/kg/day
  Toxicity: Mild/moderate by day 1
[4]; 30 mg/kg/day
  Toxicity: moderate
[4]; 60 mg/kg/day
  Toxicity: Severe, open wounds
